Test results published in ChEMBL document CHEMBL1145176, “Somatostatin receptor 1 selective analogues: 2. N(alpha)-Methylated scan” (J Med Chem, 2005).
Positions of bridges follow the written chain, without caps; N, C: chain ends. Non-standard residues stand in square brackets, D forms with d. Residues, ends and D or L forms follow the SMILES beside them. NMePhe(4-CH2NHiPr) = CN[C@@H](Cc1ccc(CNC(C)C)cc1)C(=O)O; Phe(4-CH2NHiPr) = CC(C)NCc1ccc(C[C@H](N)C(=O)O)cc1; d2Nal = N[C@H](Cc1ccc2ccccc2c1)C(=O)O; NMeS = CN[C@@H](CO)C(=O)O

Columns and labels:
[1] = target: Somatostatin receptor type 3 (Homo sapiens, UniProt P32745); test: Inhibition of [Leu8,D-Trp22,125I-Tyr25]SRIF-28 binding to human somatostatin receptor type 3
[2] = target: Somatostatin receptor type 1 (Homo sapiens, UniProt P30872); test: Inhibition of [Leu8,D-Trp22,125I-Tyr25]SRIF-28 binding to human somatostatin receptor type 1
[3] = target: Somatostatin receptor type 4 (Homo sapiens, UniProt P31391); test: Inhibition of [Leu8,D-Trp22,125I-Tyr25]SRIF-28 binding to human somatostatin receptor type 4
[4] = target: Somatostatin receptor type 5 (Homo sapiens, UniProt P35346); test: Inhibition of [Leu8,D-Trp22,125I-Tyr25]SRIF-28 binding to human somatostatin receptor type 5
[5] = target: Somatostatin receptor type 2 (Homo sapiens, UniProt P30874); test: Inhibition of [Leu8,D-Trp22,125I-Tyr25]SRIF-28 binding to human somatostatin receptor type 2
Sequence of Somatostatin receptor type 2 (P30874 whole entry): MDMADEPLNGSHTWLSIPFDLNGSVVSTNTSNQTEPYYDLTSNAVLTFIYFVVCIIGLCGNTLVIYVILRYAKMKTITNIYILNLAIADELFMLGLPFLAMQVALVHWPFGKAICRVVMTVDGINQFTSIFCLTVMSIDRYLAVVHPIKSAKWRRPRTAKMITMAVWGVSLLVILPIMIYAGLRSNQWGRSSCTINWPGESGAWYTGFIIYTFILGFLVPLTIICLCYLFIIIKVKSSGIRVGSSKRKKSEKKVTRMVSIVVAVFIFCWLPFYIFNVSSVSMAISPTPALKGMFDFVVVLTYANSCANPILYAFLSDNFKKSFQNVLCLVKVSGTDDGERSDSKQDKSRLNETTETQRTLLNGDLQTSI

Sequence of Somatostatin receptor type 3 (P32745 whole entry): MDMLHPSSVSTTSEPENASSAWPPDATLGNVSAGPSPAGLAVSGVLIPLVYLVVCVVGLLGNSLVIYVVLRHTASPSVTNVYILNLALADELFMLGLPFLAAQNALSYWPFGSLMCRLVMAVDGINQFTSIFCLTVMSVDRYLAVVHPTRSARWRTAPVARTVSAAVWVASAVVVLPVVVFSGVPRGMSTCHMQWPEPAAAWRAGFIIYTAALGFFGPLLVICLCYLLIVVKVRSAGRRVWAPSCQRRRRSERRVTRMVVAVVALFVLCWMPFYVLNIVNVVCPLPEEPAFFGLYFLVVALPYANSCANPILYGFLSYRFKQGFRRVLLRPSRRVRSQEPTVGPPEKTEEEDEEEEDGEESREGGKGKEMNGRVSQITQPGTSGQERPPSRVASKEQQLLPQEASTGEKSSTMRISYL
Sequence of Somatostatin receptor type 5 (P35346 whole entry): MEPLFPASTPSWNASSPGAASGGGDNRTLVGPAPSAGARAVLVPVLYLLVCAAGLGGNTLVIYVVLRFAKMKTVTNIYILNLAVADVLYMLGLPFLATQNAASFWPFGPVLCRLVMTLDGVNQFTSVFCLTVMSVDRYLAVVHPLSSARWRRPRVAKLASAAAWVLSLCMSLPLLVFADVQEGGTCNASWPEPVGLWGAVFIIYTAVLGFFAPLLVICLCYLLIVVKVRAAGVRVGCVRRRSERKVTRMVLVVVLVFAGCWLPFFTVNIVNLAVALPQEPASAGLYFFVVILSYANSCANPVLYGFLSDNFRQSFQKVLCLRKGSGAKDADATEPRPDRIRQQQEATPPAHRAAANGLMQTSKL
Sequence of Somatostatin receptor type 1 (P30872 whole entry): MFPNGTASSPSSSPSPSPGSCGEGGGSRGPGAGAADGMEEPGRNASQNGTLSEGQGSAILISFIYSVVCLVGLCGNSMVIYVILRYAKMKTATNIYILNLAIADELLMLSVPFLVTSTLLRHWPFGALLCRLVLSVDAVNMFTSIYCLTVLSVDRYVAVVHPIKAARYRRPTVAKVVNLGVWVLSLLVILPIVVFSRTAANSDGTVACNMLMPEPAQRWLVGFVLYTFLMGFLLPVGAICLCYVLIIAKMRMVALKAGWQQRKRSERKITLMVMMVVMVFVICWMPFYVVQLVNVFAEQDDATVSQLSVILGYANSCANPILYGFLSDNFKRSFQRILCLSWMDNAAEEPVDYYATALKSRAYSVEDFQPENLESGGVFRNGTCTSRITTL
Sequence of Somatostatin receptor type 4 (P31391 whole entry): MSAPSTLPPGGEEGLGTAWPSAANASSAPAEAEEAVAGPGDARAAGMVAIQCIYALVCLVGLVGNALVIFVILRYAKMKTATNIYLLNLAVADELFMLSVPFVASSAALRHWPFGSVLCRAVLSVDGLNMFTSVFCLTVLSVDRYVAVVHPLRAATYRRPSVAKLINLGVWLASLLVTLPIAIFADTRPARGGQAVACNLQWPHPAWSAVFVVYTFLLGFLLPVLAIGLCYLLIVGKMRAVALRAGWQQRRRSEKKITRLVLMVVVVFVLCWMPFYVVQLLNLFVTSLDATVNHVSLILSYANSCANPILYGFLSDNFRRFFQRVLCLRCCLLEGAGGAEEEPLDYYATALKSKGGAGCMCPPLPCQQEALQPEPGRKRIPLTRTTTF

| IC50 [1] | IC50 [2] | IC50 [3] | IC50 [4] | IC50 [5] | Compound |
| --- | --- | --- | --- | --- | --- |
| 0.9 µM | > 1 µM | > 1 µM |  |  | CC(C)NCc1ccc(C[C@@H]2NC(=O)[C@@H](N(C)C(=O)c3ccc4ccccc4c3)NC(=O)[C@H](Cc3ccccc3)NC(=O)[C@H](Cc3ccccc3)NC(=O)[C@H](CCCCN)NC(=O)[C@@H](N)CSSC[C@@H](C(=O)O)NC(=O)[C@H](CO)NC(=O)[C@H]([C@@H](C)O)NC(=O)[C@H](Cc3ccc(O)cc3)NC(=O)[C@H]([C@@H](C)O)NC2=O)cc1 |
| 0.008 µM | 0.01 µM | 0.0005 µM | 0.0048 µM | 0.016 µM | C[C@@H](O)[C@@H]1NC(=O)[C@H](Cc2ccc(O)cc2)NC(=O)[C@H]([C@@H](C)O)NC(=O)[C@H](CCCCN)NC(=O)[C@@H](Cc2c[nH]c3ccccc23)NC(=O)[C@H](Cc2ccccc2)NC(=O)[C@H](Cc2ccccc2)NC(=O)[C@H](CCCCN)NC(=O)[C@@H](N)CSSC[C@@H](C(=O)O)NC(=O)[C@H](CO)NC1=O |
| > 1 µM | 0.255 µM | > 1 µM | > 1 µM | > 1 µM | CC(C)NCc1ccc(C[C@@H]2NC(=O)[C@@H](Cc3ccc4ccccc4c3)NC(=O)[C@H](Cc3ccccc3)NC(=O)[C@H](Cc3ccccc3)NC(=O)[C@H](CCCCN)NC(=O)[C@@H](N)CSSC[C@@H](C(=O)N[C@@H](CCCCN)C(=O)O)N(C)C(=O)[C@H](CO)NC(=O)[C@H]([C@@H](C)O)NC(=O)[C@H](Cc3ccccc3)NC(=O)[C@H]([C@@H](C)O)NC2=O)cc1 |
| > 1 µM | 0.035 µM | > 1 µM | > 1 µM | > 1 µM | CC(C)NCc1ccc(C[C@@H]2NC(=O)[C@@H](Cc3c[nH]c4ccccc34)NC(=O)[C@H](Cc3ccccc3)NC(=O)[C@H](Cc3ccccc3)NC(=O)[C@H](CCCCN)NC(=O)[C@@H](N)CSSC[C@@H](C(=O)N[C@@H](CCCCN)C(=O)O)N(C)C(=O)[C@H](CO)NC(=O)[C@H]([C@@H](C)O)NC(=O)[C@H](Cc3ccccc3)NC(=O)[C@H]([C@@H](C)O)NC2=O)cc1 |
| > 1 µM | 0.535 µM | > 1 µM | > 1 µM | > 1 µM | CC(C)NCc1ccc(C[C@@H]2NC(=O)[C@@H](Cc3ccc4ccccc4c3)NC(=O)[C@H](Cc3ccccc3)NC(=O)[C@H](Cc3ccccc3)NC(=O)[C@H](CCCCN)N(C)C(=O)[C@@H](N)CSSC[C@@H](C(=O)O)NC(=O)[C@H](CO)NC(=O)[C@H]([C@@H](C)O)NC(=O)[C@H](Cc3ccccc3)NC(=O)[C@H]([C@@H](C)O)NC2=O)cc1 |
| > 1 µM | 0.113 µM | > 1 µM | > 1 µM | > 1 µM | CN[C@H]1CSSC[C@@H](C(=O)O)NC(=O)[C@H](CO)NC(=O)[C@H]([C@@H](C)O)NC(=O)[C@H](Cc2ccccc2)NC(=O)[C@H]([C@@H](C)O)NC(=O)[C@H](Cc2ccc(CNC(C)C)cc2)NC(=O)[C@@H](Cc2ccc3ccccc3c2)NC(=O)[C@H](Cc2ccccc2)NC(=O)[C@H](Cc2ccccc2)NC(=O)[C@H](CCCCN)NC1=O |
| > 1 µM | 0.03 µM | > 1 µM | 0.803 µM | > 1 µM | CC(C)NCc1ccc(C[C@@H]2NC(=O)[C@@H](Cc3c[nH]c4ccccc34)NC(=O)[C@H](Cc3ccccc3)NC(=O)[C@H](Cc3ccccc3)NC(=O)[C@H](CCCCN)NC(=O)[C@@H](N)CSSC[C@@H](C(=O)N[C@@H](CCCCN)C(=O)N[C@@H](CCCCN)C(=O)N[C@@H](CCCCN)C(=O)O)N(C)C(=O)[C@H](CO)NC(=O)[C@H]([C@@H](C)O)NC(=O)[C@H](Cc3ccccc3)NC(=O)[C@H]([C@@H](C)O)NC2=O)cc1 |
| 0.62 µM | 0.144 µM | > 1 µM | > 1 µM | > 1 µM | CC(C)NCc1ccc(C[C@@H]2NC(=O)[C@@H](Cc3ccc4ccccc4c3)NC(=O)[C@H](Cc3ccccc3)NC(=O)[C@H](Cc3ccccc3)NC(=O)[C@H](CCCCN)NC(=O)[C@@H](N)CSSC[C@@H](C(=O)N[C@@H](CCCCN)C(=O)N[C@@H](CCCCN)C(=O)N[C@@H](CCCCN)C(=O)O)N(C)C(=O)[C@H](CO)NC(=O)[C@H]([C@@H](C)O)NC(=O)[C@H](Cc3ccccc3)NC(=O)[C@H]([C@@H](C)O)NC2=O)cc1 |
| > 1 µM | 0.053 µM | > 1 µM | 0.682 µM | > 1 µM | CC(C)NCc1ccc(C[C@@H]2NC(=O)[C@@H](Cc3c[nH]c4ccccc34)NC(=O)[C@H](Cc3ccccc3)NC(=O)[C@H](Cc3ccccc3)NC(=O)[C@H](CCCCN)NC(=O)[C@@H](N)CSSC[C@@H](C(=O)N[C@@H](CCCCN)C(=O)N[C@@H](CCCCN)C(=O)O)NC(=O)[C@H](CO)N(C)C(=O)[C@H]([C@@H](C)O)NC(=O)[C@H](Cc3ccccc3)NC(=O)[C@H]([C@@H](C)O)NC2=O)cc1 |
| > 1 µM | 0.151 µM | > 1 µM | > 1 µM | > 1 µM | CC(C)NCc1ccc(C[C@@H]2NC(=O)[C@@H](Cc3c[nH]c4ccccc34)NC(=O)[C@H](Cc3ccccc3)NC(=O)[C@H](Cc3ccccc3)NC(=O)[C@H](CCCCN)NC(=O)[C@@H](N)CSSC[C@@H](C(=O)O)N(C)C(=O)[C@H](CO)NC(=O)[C@H]([C@@H](C)O)NC(=O)[C@H](Cc3ccccc3)NC(=O)[C@H]([C@@H](C)O)NC2=O)cc1 |
| > 1 µM | > 1 µM | > 1 µM | > 1 µM | > 1 µM | CC(C)NCc1ccc(C[C@@H]2NC(=O)[C@@H](Cc3ccc4ccccc4c3)NC(=O)[C@H](Cc3ccccc3)NC(=O)[C@H](Cc3ccccc3)N(C)C(=O)[C@H](CCCCN)NC(=O)[C@@H](N)CSSC[C@@H](C(=O)O)NC(=O)[C@H](CO)NC(=O)[C@H]([C@@H](C)O)NC(=O)[C@H](Cc3ccccc3)NC(=O)[C@H]([C@@H](C)O)NC2=O)cc1 |
|  | 0.00098 µM |  |  |  | C[C@H](N)C(=O)NCC(=O)N[C@H]1CSSC[C@@H](C(=O)O)NC(=O)[C@H](CO)NC(=O)[C@H]([C@@H](C)O)NC(=O)[C@H](Cc2ccccc2)NC(=O)[C@H]([C@@H](C)O)NC(=O)[C@H](CCCCN)NC(=O)[C@@H](Cc2c[nH]c3ccccc23)NC(=O)[C@H](Cc2ccccc2)NC(=O)[C@H](Cc2ccccc2)NC(=O)[C@H](CCCCN)NC1=O (H-AGCKFF[dW]KTFTSC-OH; disulfide 3-13) |
|  | 0.069 µM |  | > 1 µM |  | CC(C)NCc1ccc(C[C@H]2C(=O)N[C@@H]([C@@H](C)O)C(=O)N[C@@H](Cc3ccccc3)C(=O)N[C@@H]([C@@H](C)O)C(=O)N[C@@H](CO)C(=O)N[C@H](C(=O)O)CSSC[C@H](N)C(=O)N[C@@H](CCCCN)C(=O)N[C@@H](Cc3ccccc3)C(=O)N[C@@H](Cc3ccccc3)C(=O)N[C@H](Cc3ccc4ccccc4c3)C(=O)N2C)cc1 (H-CKFF[d2Nal][NMePhe(4-CH2NHiPr)]TFTSC-OH; disulfide 1-11) |
|  | 0.025 µM |  | > 1 µM | > 1 µM | CC(C)NCc1ccc(C[C@H]2C(=O)N[C@@H]([C@@H](C)O)C(=O)N[C@@H](Cc3ccc(O)cc3)C(=O)N[C@@H]([C@@H](C)O)C(=O)N[C@@H](CO)C(=O)N[C@H](C(=O)O)CSSC[C@H](N)C(=O)N[C@@H](CCCCN)C(=O)N[C@@H](Cc3ccccc3)C(=O)N[C@@H](Cc3ccccc3)C(=O)N[C@H](Cc3ccc4ccccc4c3)C(=O)N2C)cc1 (H-CKFF[d2Nal][NMePhe(4-CH2NHiPr)]TYTSC-OH; disulfide 1-11) |
|  | 0.248 µM |  | > 1 µM |  | CC(C)NCc1ccc(C[C@@H]2NC(=O)[C@@H](Cc3ccc4ccccc4c3)NC(=O)[C@H](Cc3ccccc3)NC(=O)[C@H](Cc3ccccc3)NC(=O)[C@H](CCCCN)NC(=O)[C@@H](N)CSSC[C@@H](C(=O)O)NC(=O)[C@H](CO)NC(=O)[C@H]([C@@H](C)O)NC(=O)[C@H](Cc3ccccc3)NC(=O)[C@H]([C@@H](C)O)NC2=O)cc1 (H-CKFF[d2Nal][Phe(4-CH2NHiPr)]TFTSC-OH; disulfide 1-11) |
|  |  |  | > 1 µM | > 1 µM | CC(C)NCc1ccc(C[C@H]2C(=O)N[C@@H]([C@@H](C)O)C(=O)N[C@@H](Cc3ccc(O)cc3)C(=O)N[C@@H]([C@@H](C)O)C(=O)N[C@@H](CO)C(=O)N[C@H](C(=O)O)CSSC[C@H](N)C(=O)N[C@@H](CCCCN)C(=O)N[C@@H](Cc3ccccc3)C(=O)N[C@@H](Cc3ccccc3)C(=O)N[C@H](Cc3c[nH]c4ccccc34)C(=O)N2C)cc1 (H-CKFF[dW][NMePhe(4-CH2NHiPr)]TYTSC-OH; disulfide 1-11) |
|  | 0.033 µM |  |  |  | CC(C)NCc1ccc(C[C@@H]2NC(=O)[C@@H](Cc3c[nH]c4ccccc34)NC(=O)[C@H](Cc3ccccc3)NC(=O)[C@H](Cc3ccccc3)NC(=O)[C@H](CCCCN)NC(=O)[C@@H](N)CSSC[C@@H](C(=O)O)NC(=O)[C@H](CO)NC(=O)[C@H]([C@@H](C)O)NC(=O)[C@H](Cc3ccccc3)NC(=O)[C@H]([C@@H](C)O)NC2=O)cc1 (H-CKFF[dW][Phe(4-CH2NHiPr)]TFTSC-OH; disulfide 1-11) |
| > 1 µM | 0.023 µM |  |  | > 1 µM | CC(C)NCc1ccc(C[C@@H]2NC(=O)[C@@H](Cc3c[nH]c4ccccc34)NC(=O)[C@H](Cc3ccccc3)NC(=O)[C@H](Cc3ccccc3)NC(=O)[C@H](CCCCN)NC(=O)[C@@H](N)CSSC[C@@H](C(=O)O)NC(=O)[C@H](CO)N(C)C(=O)[C@H]([C@@H](C)O)NC(=O)[C@H](Cc3ccccc3)NC(=O)[C@H]([C@@H](C)O)NC2=O)cc1 (H-CKFF[dW][Phe(4-CH2NHiPr)]TFT[NMeS]C-OH; disulfide 1-11) |
|  | 0.016 µM | 0.245 µM |  | > 1 µM | CC(C)NCc1ccc(C[C@H]2C(=O)N[C@@H]([C@@H](C)O)C(=O)N[C@@H](Cc3ccccc3)C(=O)N[C@@H]([C@@H](C)O)C(=O)N[C@@H](CO)C(=O)N[C@H](C(=O)O)CSSC[C@H](NC(=O)[C@@H](N)Cc3ccc(O)cc3)C(=O)N[C@@H](CCCCN)C(=O)N[C@@H](Cc3ccccc3)C(=O)N[C@@H](Cc3ccccc3)C(=O)N[C@H](Cc3c[nH]c4ccccc34)C(=O)N2C)cc1 (H-YCKFF[dW][NMePhe(4-CH2NHiPr)]TFTSC-OH; disulfide 2-12) |
